Results published in US20090318565A1, “Novel Compositions for the Enhancement of the Anti-oxidant Potential of Hydrogenated Curcuminoids or Combinations Thereof” (priority 2008, published 2009).
Values after ≈ are worked out from the molar mass of the structure shown.

Columns and labels:
[1] = test system: Swiss 3T3 mouse fibroblast cells; experiment: ROS scavenging assay (DCFH-DA dye, oxidation initiated by FeSO4); assay type: cell-based; details: for IC50: Mus musculus, Swiss-3T3, DCFH-DA, FeSO4, 1 hr at 37° C., fluorescence 485/520 nm, called SC50, read-out: % Inhibition (IC50 μg/ml) ROS scavenging in Swiss 3T3 fibroblast cell line
Method: The DPPH free radical scavenging activity is studied based on the stable free radical 1,1-diphenyl-2-picryl hydrazyl radical (DPPH) which, in presence of an antioxidant in organic/aqueous organic media is bleached and the decrease of absorbance of DPPH is measured spectrophotometrically at 516 nm. The assay mixture containing DPPH methanolic solution & methanolic solutions of various concentrations of the antioxidant is incubated at 37 degree C. for 30 minutes. The reduction in absorbance is measured spectrophotometrically at 516 nm. The free radical scavenging activity is expressed as SC50, the concentration of the sample required for 50% of the free radical to be scavenged. The ROS scavenging assay is based on a cell permeable, non-fluorescent dye, de-esterified DCFH-DA (dichloro fluorescein diacetate) being converted to dichlorofluorescein upon oxidation by the reactive oxygen species. […] Swiss 3T3 mouse fibroblast cells are cultured in DMEM medium with 10% FBS. 1×10^5 cells per well are plated into a 96 well black plate. After treatment with varying concentrations of the samples, the cells are exposed to DCFH-DA dye and oxidation initiated by FeSO4. […] The fluorescence intensity is directly proportional to the ROS scavenging activity of the samples. The activity is expressed as SC50 which is the concentration required for 50% scavenging of ROS.

[2] = DPPH free radical scavenging assay; assay type: biochemical; details: methanolic solution, 37 degree C. for 30 minutes, absorbance at 516 nm; called SC50
Method: The DPPH free radical scavenging activity is studied based on the stable free radical 1,1-diphenyl-2-picryl hydrazyl radical (DPPH) which, in presence of an antioxidant in organic/aqueous organic media is bleached and the decrease of absorbance of DPPH is measured spectrophotometrically at 516 nm. The assay mixture containing DPPH methanolic solution & methanolic solutions of various concentrations of the antioxidant is incubated at 37 degree C. for 30 minutes. The reduction in absorbance is measured spectrophotometrically at 516 nm. The free radical scavenging activity is expressed as SC50, the concentration of the sample required for 50% of the free radical to be scavenged. The ROS scavenging assay is based on a cell permeable, non-fluorescent dye, de-esterified DCFH-DA (dichloro fluorescein diacetate) being converted to dichlorofluorescein upon oxidation by the reactive oxygen species. The scavenging activity of sample is indicated by the decrease in fluorescence (wavelength 485/520 nm). Swiss 3T3 mouse fibroblast cells are cultured in DMEM medium with 10% FBS. […] After incubation for 1 hr at 37° C., the fluorescence reading is taken at wavelength 485/520 nm (Fluostar optima microplate reader). The fluorescence intensity is directly proportional to the ROS scavenging activity of the samples. The activity is expressed as SC50 which is the concentration required for 50% scavenging of ROS.

## O=C(CCc1ccc(O)cc1)CC(=O)CCc1ccc(O)cc1 [STR#1, 1,7-Bis(4-hydroxyphenyl)-3,5-heptanedione]
[1]; upon hydrogenation
  pro-oxidant properties of hydrogenated derivative against bisdemethoxycurcumin: enhanced

## COc1cc(CCC(=O)CC(=O)CCc2ccc(O)c(OC)c2)ccc1O [STR#II, 1,7-Bis(4-hydroxy-3-methoxyphenyl)-3,5-heptanedione]
[1]
  IC50: 1.35 µg/mL (≈ 3.62 µM)
[1]; upon hydrogenation
  anti-oxidant activity of hydrogenated derivative against curcumin: enhanced

## COc1cc(CCC(=O)CC(=O)CCc2ccc(O)cc2)ccc1O [STR#V, 1-(4-hydroxy-3-methoxyphenyl)-7-(4-hydroxyphenyl)-3,5-heptanedione]
[2]
  SC50: 3.0 µg/mL
[1]
  IC50: 4.5 µg/mL (≈ 13.1 µM)
[1]; hydrogenated derivative against demethoxycurcumin
  enhancement of anti-oxidant properties upon hydrogenation (ROS scavenging activity): about 10 fold
